We go through 27 compounds from patent US20070111251A1, “Chemical address tags” (priority 2003, published 2007).

The test system of this data set is HeLa cells. Nature of the data set: Kinetic imaging of NBD-triazine probe uptake and sequestration, fitted to nested two-compartment transport model. The format is cell-based. To be noted: median over optimal solutions within 5% of the best fit. The procedure: In living cells, image data was simultaneously acquired with an automated, high-content, kinetic screening instrument equipped with an environmental chamber (see, e.g., V. C. Abraham, D. L. Taylor and J. R. Haskins, Trends in Biotechnology 22, 15 (2004); herein incorporated by reference in its entirety), as cells were incubated with the fluorescent molecules and after removal of extracellular probe. Data was analyzed off line, using an image analysis algorithm to measure the statistical pixel intensity distribution associated with fluorescence probe sequestration in the perinuclear region (see, e.g., FIG. 21; see also, e.g., G. J. Ding et al., Journal of Biological Chemistry 273, 28897 (1998); herein incorporated by reference in its entirety). Data was parametrized with a nested, two-compartment, transport model (see, e.g., W. E. Evans, J. J. Schentag and W. J. Jusko., Applied Pharmacokinetics: Principles of Therapeutic Drug Monitoring (Lippincott Williams & Wilkins, Vancouver, W.A., 1992); herein incorporated by reference in its entirety), using a statistical link function to relate the kinetic coefficient of variation (CV) of pixel intensities in the images with the concentration of probe in vesicles and cytoplasm. Optimal kinetic parameters fitting the experimental data for each probe to the system described by the two-compartment model and statistical link function were determined using the simulated annealing technique (see, e.g., M. Pincus., Oper. Res. 18, 1225 (1979); herein incorporated by reference in its entirety). The present invention is not limited to a particular mechanism. Indeed, an understanding of the mechanism is not necessary to practice the present invention.
To assess how well the model accounts for all the different kinetic traces acquired, a “PVE” (proportion of variance explained) by the model was calculated. The PVE is one minus the ratio of the sum of squared differences between observed and fitted values to the sum of squared differences between observed values and their mean. PVE values close to one indicate good fit to the nested two-compartment model. The average PVE across the probes was 0.92, with >50% of the probes yielded PVE values […]. The present invention is not limited to a particular mechanism. Indeed, an understanding of the mechanism is not necessary to practice the present invention.
Cell culture. HeLa cells were grown in RPMI+10% FCS in a 5% CO2 atmosphere at 37° C. and plated in 96-well plates at a density of 3000 cells/well 24 hours prior to the start of the experiment.
Kinetic Imaging. For influx experiments, cells on 96-well plates were switched to imaging media consisting of RPMI containing 1.0 mM Bromophenol Blue—a soluble, cell-impermeant chromophore used to suppress excitation and emission of extracellular (background) dye fluorescence-, 10 μM probe and 0.1 μM Hoescht 33258 to label the cell nuclei. Plates were then transferred to a KineticScan instrument (Cellomics, Inc., Pittsburgh, Pa.), which contains an environmentally controlled CO2/temperature/humidity chamber, and data was acquired with a 20× objective lens. Images acquisition began approximately 10 min after dye addition, using the Hoescht channel to acquire nuclear images and FITC channel to acquire the NBD image. Plate-scanning mode was used for scanning, in which the instrument builds time-stacks of images by scanning the plate multiple times, returning to the same site of the plate at every scan. For efflux experiments, dye-containing media was removed from the wells of the plate. The wells were washed twice with fresh RPMI medium, imaging media was added, and image acquisition restarted 7 min after the dye-containing media was removed. The last time points of the influx experiment served as the first time point of the efflux experiment. Plates were scanned for approximately two hours in the influx experiment and six hours for the efflux experiment, with each well imaged on average every 7 minutes. […]

Structures are written as SMILES.

On to `CCCCNc1nc(NCCCCCCNc2ccc([N+](=O)[O-])c3nonc23)nc(NCc2ccc(OC)cc2)n1` [Compound C1], for which the “median Pap(cyto) (apparent partition coefficient between extracellular medium and cytosol)” value (“median Pap(cyto)” for short) turned out to be 10.25; the “median Pap(ves) (apparent partition coefficient between cytosol and intracellular vesicles, k(ves)in/k(ves)out)” value (“median Pap(ves)” for short) is listed as 22.06.

For the compound `COc1cccc(CNc2nc(NCCCCCCNc3ccc([N+](=O)[O-])c4nonc34)nc(NC3CCCCC3C)n2)c1` (stereo not drawn) [Compound B5], the “median Pap(cyto)” value turned out to be 9.10; the “median Pap(ves)” value amounted to 9.25.

In the case of `CCCCNc1nc(NCCCCCCNc2ccc([N+](=O)[O-])c3nonc23)nc(NCc2ccc(C)cc2)n1` [Compound G1], the “median Pap(cyto)” value turned out to be 12.30; the “median Pap(ves)” value came to 12.14.

With `CC1CCCCC1Nc1nc(NCCCCCCNc2ccc([N+](=O)[O-])c3nonc23)nc(NCc2cccc(F)c2)n1` (stereo not drawn) [Compound E5], the “median Pap(cyto)” value was found to be 5.98; the “median Pap(ves)” value amounted to 29.55.

Take `CC1CCCCC1Nc1nc(NCCCCCCNc2ccc([N+](=O)[O-])c3nonc23)nc(NCc2ccccc2)n1` (stereo not drawn) [Compound A5]: the “median Pap(cyto)” value is given as 19.23; the “median Pap(ves)” value stood at 12.11.

`COc1ccc(CNc2nc(NCCCCCCNc3ccc([N+](=O)[O-])c4nonc34)nc(NC3CCCCC3C)n2)cc1` (stereo not drawn) [Compound C5]: the “median Pap(cyto)” value is recorded as 10.01; the “median Pap(ves)” value amounted to 9.72.

Consider `CCCCCCCCNc1nc(NCCCCCCNc2ccc([N+](=O)[O-])c3nonc23)nc(NCc2cccc(OC)c2OC)n1` [Compound H3], for which the “median Pap(cyto)” value is 7.51; the “median Pap(ves)” value is given as 14.91.

On to `CCCCCCCCNc1nc(NCCCCCCNc2ccc([N+](=O)[O-])c3nonc23)nc(NCCc2ccc(OC)cc2)n1` [Compound D3], for which the “median Pap(cyto)” value was 2.75; the “median Pap(ves)” value came out at 101.21.

On to `COc1cccc(CNc2nc(NCCCCCCNc3ccc([N+](=O)[O-])c4nonc34)nc(NCC3CCCCC3)n2)c1OC` [Compound H6], for which the “median Pap(cyto)” value turned out to be 8.77; the “median Pap(ves)” value was found to be 22.55.

Regarding `O=[N+]([O-])c1ccc(NCCCCCCNc2nc(NCCc3ccccn3)nc(NCc3ccccc3)n2)c2nonc12` [Compound A9], the “median Pap(cyto)” value turned out to be 11.54; the “median Pap(ves)” value is given as 19.12.

In the case of `CCCCCCCCNc1nc(NCCCCCCNc2ccc([N+](=O)[O-])c3nonc23)nc(NCc2ccccc2)n1` [Compound A3], the “median Pap(cyto)” value came to 12.96; the “median Pap(ves)” value is recorded as 6.45.

Consider `COc1cccc(CNc2nc(NCCCCCCNc3ccc([N+](=O)[O-])c4nonc34)nc(NC3CCC(C)CC3)n2)c1` (stereo not drawn) [Compound B4], for which the “median Pap(cyto)” value was found to be 18.09; the “median Pap(ves)” value amounted to 12.15.

Regarding `COc1cccc(CNc2nc(NCCCCCCNc3ccc([N+](=O)[O-])c4nonc34)nc(NC(C)C)n2)c1` [Compound B2], the “median Pap(cyto)” value amounted to 11.59; the “median Pap(ves)” value was 10.82.

Consider `O=[N+]([O-])c1ccc(NCCCCCCNc2nc(NCc3cccc(F)c3)nc(NCC3CCCCC3)n2)c2nonc12` [Compound E6], for which the “median Pap(cyto)” value is recorded as 10.29; the “median Pap(ves)” value worked out at 20.28.

In the case of `COc1ccc(CNc2nc(NCCCCCCNc3ccc([N+](=O)[O-])c4nonc34)nc(NCC3CCCCC3)n2)cc1` [Compound C6], the “median Pap(cyto)” value was 19.15; the “median Pap(ves)” value worked out at 11.94.

For `COc1cccc(CNc2nc(NCCCCCCNc3ccc([N+](=O)[O-])c4nonc34)nc(NCCC(C)C)n2)c1` [Compound B8], the “median Pap(cyto)” value is given as 9.79; the “median Pap(ves)” value came out at 23.66.

Turning to `COc1ccc(CCNc2nc(NCCCCCCNc3ccc([N+](=O)[O-])c4nonc34)nc(NC(C)C)n2)cc1` [Compound D2], the “median Pap(cyto)” value is on record as 149.28; the “median Pap(ves)” value was 1.53.

As for `CCCCCCCCNc1nc(NCCCCCCNc2ccc([N+](=O)[O-])c3nonc23)nc(NCCC(c2ccccc2)c2ccccc2)n1` [Compound F3], the “median Pap(cyto)” value came out at 21.91; the “median Pap(ves)” value is 9.79.

`CC(C)Nc1nc(NCCCCCCNc2ccc([N+](=O)[O-])c3nonc23)nc(NCc2ccccc2)n1` [Compound A2]: the “median Pap(cyto)” value is reported as 13.18; the “median Pap(ves)” value is 13.98.

Take `CCCCCCCCNc1nc(NCCCCCCNc2ccc([N+](=O)[O-])c3nonc23)nc(NCc2cccc(F)c2)n1` [Compound E3]: the “median Pap(cyto)” value turned out to be 4.14; the “median Pap(ves)” value turned out to be 19.86.

In the case of `Cc1ccc(CNc2nc(NCCCCCCNc3ccc([N+](=O)[O-])c4nonc34)nc(NCCC(C)C)n2)cc1` [Compound G8], the “median Pap(cyto)” value stood at 8.29; the “median Pap(ves)” value came to 24.73.

Consider `COc1ccc(CNc2nc(NCCCCCCNc3ccc([N+](=O)[O-])c4nonc34)nc(NCCC(C)C)n2)cc1` [Compound C8], for which the “median Pap(cyto)” value is recorded as 8.56; the “median Pap(ves)” value was determined as 31.04.

On to `Cc1ccc(CNc2nc(NCCCCCCNc3ccc([N+](=O)[O-])c4nonc34)nc(NCCc3ccccn3)n2)cc1` [Compound G9], for which the “median Pap(cyto)” value turned out to be 267.03; the “median Pap(ves)” value came out at 0.20.

In the case of `CCCCCCCCNc1nc(NCCCCCCNc2ccc([N+](=O)[O-])c3nonc23)nc(NCc2ccc(OC)cc2)n1` [Compound C3], the “median Pap(cyto)” value was found to be 5.74; the “median Pap(ves)” value came out at 26.52.

As to `COc1ccc(CNc2nc(NCCCCCCNc3ccc([N+](=O)[O-])c4nonc34)nc(NC3CCCCC3)n2)cc1` [Compound C7], the “median Pap(cyto)” value stood at 12.58; the “median Pap(ves)” value worked out at 12.01.

As to `COc1ccc(CCNc2nc(NCCCCCCNc3ccc([N+](=O)[O-])c4nonc34)nc(NC3CCCCC3)n2)cc1` [Compound D7], the “median Pap(cyto)” value amounted to 8.37; the “median Pap(ves)” value was 28.56.

As to `COc1cccc(CNc2nc(NCCCCCCNc3ccc([N+](=O)[O-])c4nonc34)nc(NC3CCCCC3C)n2)c1OC` (stereo not drawn) [Compound H5], the “median Pap(cyto)” value was 5.12; the “median Pap(ves)” value is on record as 16.80.
